These results are taken from patent US20090227533A1, “miR-34 Regulated Genes and Pathways as Targets for Therapeutic Intervention” (priority 2007, published 2009).

Data set [1] concerns Jurkat. The conditions noted are these: cited from earlier work.
For data set [2], the system named is PPC-1 prostate cancer xenograft. The data set is described as follows: Tumor growth of human prostate cancer xenograft. The format is in vivo, NOD/SCID mice. As to the method:
Therefore, hsa-miR-34a is likely to interfere with prostate tumor growth in the animal. To explore this possibility, the therapeutic potential of synthetic hsa-miR-34a miRNA was evaluated in the animal using the PPC-1 human prostate cancer xenograft. 5×10^6 PPC-1 cells per animal were electroporated with 1.6 μM synthetic hsa-miR-34a or negative control miRNA (Pre-miR™-hsa-miR-34a, Ambion cat. no. AM17100; NC, Pre-miR™ microRNA Precursor Molecule-Negative Control #2, Ambion cat. no. AM17111), mixed with BD Matrigel™, (BD Biosciences; San Jose, Calif., USA; cat. no. 356237) in a 1:1 ratio and implanted subcutaneously into the lower back of NOD/SCID mice (Charles River Laboratories, Inc.; Wilmington, Mass., USA). A group of 7 mice was injected with hsa-miR-34a treated PPC-1 cells, and a group of 7 animals was injected with PPC-1 cells treated with negative control miRNA. To maintain steady levels of miRNA, 6.25 μg of each hsa-miR-34a or negative control miRNA conjugated with the lipid-based siPORT™ amine delivery agent (Ambion, Austin, Tex.; cat. no. AM4502) were repeatedly administered on days 7, 13, 20, and 25 via intra-tumoral injections. Given an average mouse weight of 20 g, this dose equals 0.3125 mg/kg. Tumor growth was monitored by taking caliper measurements every 1-2 days for 32 days. Tumor volumes were calculated using the formula, Volume=length×width×width/2, in which the length is greater than the width, and plotted over time (FIG. 7). Standard deviations are shown in the graph. All data points had p values<0.01. p values were as low as 1.86×10^−9 for data obtained on day 22, indicating statistical significance.

Data set [3] relates to lung cancer cells (A549). The conditions noted are these: cited from earlier work.
Data set [4] relates to prostate cancer cells PPC-1, Du145, LNCaP and RWPE2. The data set is described as follows: Alamar Blue proliferation assay, average over four prostate cancer cell lines. The data set is classed as cell-based, human. From the text: The inventors assessed the therapeutic effect of hsa-miR-34a for prostate cancer by using four individual human prostate cancer cell lines. To measure cellular proliferation of prostate cancer cells, the following prostate cancer cell lines were used: PPC-1, derived from a bone metastasis; Du145, derived from a brain metastasis; RWPE2, derived from prostate cells immortalized by human papillomavirus 18 and transformed by the K-RAS oncogene; and LNCaP, derived from a lymph node metastasis (Bello et al., 1997; Pretlow et al., 1993; Stone et al., 1978; Brothman et al., 1991; Horoszewicz et al., 1980). PPC-1 and Du145 cells lack expression of the prostate-specific antigen (PSA) and are independent of androgen receptor (AR) signaling. In contrast, RWPE2 and LNCaP cells test positive for PSA and AR. Cells were transfected with synthetic hsa-miR-34a (Pre-miR™-hsa-miR-34a, Ambion cat. no. AM17100) or negative control miRNA (NC; Pre-miR™ microRNA Precursor Molecule-Negative Control #2; Ambion cat. no. AM17111) in a 96-well format using a lipid-based transfection reagent. […] Proliferation was assessed 4-7 days post-transfection using Alamar Blue™ (Invitrogen) following the manufacturer's instructions. […] Fluorescent light units (FLU) were measured after 3 hours, normalized to the control, and plotted as percent change in proliferation. […]
Background: Resazurin is reduced to fluorescent resorufin, in cell work by metabolically active cells.

The test system of data set [5] is Du145 cells. The data set is described as follows: Alamar Blue proliferation assay, prostate cancer cells. The format is cell-based, human. Conditions: 30 nM, normalized to negative control miRNA (100% proliferation). The text has this: (§1) The inventors assessed the therapeutic effect of hsa-miR-34a for prostate cancer by using four individual human prostate cancer cell lines. To measure cellular proliferation of prostate cancer cells, the following prostate cancer cell lines were used: PPC-1, derived from a bone metastasis; Du145, derived from a brain metastasis; RWPE2, derived from prostate cells immortalized by human papillomavirus 18 and transformed by the K-RAS oncogene; and LNCaP, derived from a lymph node metastasis (Bello et al., 1997; Pretlow et al., 1993; Stone et al., 1978; Brothman et al., 1991; Horoszewicz et al., 1980). PPC-1 and Du145 cells lack expression of the prostate-specific antigen (PSA) and are independent of androgen receptor (AR) signaling. In contrast, RWPE2 and LNCaP cells test positive for PSA and AR. Cells were transfected with synthetic hsa-miR-34a (Pre-miR™-hsa-miR-34a, Ambion cat. no. AM17100) or negative control miRNA (NC; Pre-miR™ microRNA Precursor Molecule-Negative Control #2; Ambion cat. no. AM17111) in a 96-well format using a lipid-based transfection reagent. Lipid-based reverse transfections were carried out in triplicate according to a published protocol (Ovcharenko et al., 2005) and the following parameters: cells (6,000-7,000 per 96 well), 0.1-0.2 μl Lipofectamine™ 2000 (cat. no. 11668-019, Invitrogen Corp., Carlsbad, Calif., USA) in 20 μl OptiMEM (Invitrogen), 30 nM final concentration of miRNA in 100 μl. Proliferation was assessed 4-7 days post-transfection using Alamar Blue™ (Invitrogen) following the manufacturer's instructions. As a control for inhibition of cellular proliferation, siRNA against the motor protein kinesin 11, also known as Eg5, was used. Eg5 is essential for cellular survival of most eukaryotic cells and a lack thereof leads to reduced cell proliferation and cell death (Weil et al., 2002). siEg5 was used in lipid-based transfection following the same experimental parameters that apply to miRNA. Fluorescent light units (FLU) were measured after 3 hours, normalized to the control, and plotted as percent change in proliferation. Percent proliferation of hsa-miR-34a treated cells relative to cells treated with negative control miRNA (100%) is shown in Table 9 and in FIG. 5.

Data set [6] concerns LNCaP cells. The data set is described as above. Conditions: 30 nM, normalized to negative control miRNA (100% proliferation). The format is cell-based, human.
Text: as §1

Data set [7] has as its system PPC-1 cells. The description is as above. Conditions: 30 nM, normalized to negative control miRNA (100% proliferation). The format is cell-based, human.
Text: as §1

For data set [8], the system named is RWPE2 cells. The description is as above. Conditions: 30 nM, normalized to negative control miRNA (100% proliferation). The format is cell-based, human.
Text: as §1

Turning to “hsa-miR-34a: synthetic miRNA; mature sequence UGGCAGUGUCUUAGCUGGUUGUU (MIMAT0000255; SEQ ID NO:1) (synthetic miRNA, chemistry not given here)”, the “programmed cell death (apoptosis)” value in data set [1] is recorded as “increased”. Besides, the average tumor volume in data set [2] (day 32, cells electroporated with 1.6 μM, then 6.25 μg intratumoral on days 7, 13, 20, 25, n=7) is recorded as 151 mm^3. Besides, in data set [2] (mouse, in vivo), the “effect of each single administration on tumor volumes” value was “acute regression of tumor volumes”. In data set [2] (repeated dosing), the “tumor growth of PPC-1 xenograft” value is “blocked tumor growth”. In addition, the proliferation entry in data set [3] is listed as “inhibits the proliferation”. Besides, the “average inhibition of cellular proliferation” value in data set [4] (average over four prostate cancer cell lines, 30 nM, relative to negative control miRNA) is 37.18%. For the same substance, the “growth-inhibitory activity compared with siEg5” value in data set [4] (prostate cancer cell lines) is listed as “comparable to that of Eg5-directed siRNA”. In addition, the “% proliferation” value is given as 81.26% in data set [5], 49.40% in data set [6], 24.65% in data set [7] and 95.96% in data set [8].
